ChEMBL document CHEMBL1201862, “PubChem BioAssay data set” (2004)
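Growth conditions: 96-well plates. Treatment: test compound, 48 hours, 5 concentrations. Analysis: linear interpolation between bracketing concentrations; unreached endpoints set to highest concentration. GI50 is the concentration that inhibits growth by half.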 Active and inactive are the calls of the source. Cut-off read from the data, not from the text of the source: active = GI50 up to about 1.1 µM and inactive = higher.

Columns and labels:
Assay in all cases: DTP human tumour cell line panel, 48 h
[1] = tested on: HCT-116
[2] = tested on: EKVX
[3] = tested on: OVCAR-5
[4] = tested on: HCT-15
[5] = tested on: PC-3
[6] = tested on: HT-29
[7] = tested on: SN12C
[8] = tested on: Hs-578T
[9] = tested on: DU-145
[10] = tested on: 786-0
[11] = tested on: SK-MEL-5
[12] = tested on: SK-MEL-28
[13] = tested on: ACHN
[14] = tested on: SNB-75
[15] = tested on: RPMI-8226
[16] = tested on: COLO 205
[17] = tested on: MDA-N
[18] = tested on: SW-620
[19] = tested on: SR

| SMILES | GI50 [1] | GI50 [2] | GI50 [3] | GI50 [4] | GI50 [5] | GI50 [6] | GI50 [7] | GI50 [8] | GI50 [9] | GI50 [10] | GI50 [11] | GI50 [12] | GI50 [13] | GI50 [14] | GI50 [15] | GI50 [16] | GI50 [17] | GI50 [18] | GI50 [19] |
| --- | --- | --- | --- | --- | --- | --- | --- | --- | --- | --- | --- | --- | --- | --- | --- | --- | --- | --- | --- |
| Cc1ccsc1/C=N/Nc1nc2ccccc2s1 | 11.2 µM (inactive) | 19.3 µM (inactive) | 40.9 µM (inactive) | 50.5 µM | 14.3 µM (inactive) | 34.6 µM (inactive) | 13.3 µM (inactive) | 23.2 µM (inactive) | 26.8 µM (inactive) | 12.3 µM (inactive) | 20.9 µM (inactive) | 25.1 µM (inactive) | 14 µM (inactive) | 20.5 µM (inactive) | 19.4 µM (inactive) | 35.2 µM (inactive) | 34.8 µM (inactive) | 25 µM (inactive) |  |
| Cc1cc(C)c(C)c(-n2[nH]c(=O)n(C)c2=O)c1C | > 100 µM (inactive) | > 100 µM (inactive) | > 100 µM (inactive) | > 100 µM | > 100 µM (inactive) | > 100 µM (inactive) | > 100 µM (inactive) | > 100 µM (inactive) | > 100 µM (inactive) | > 100 µM (inactive) | > 100 µM (inactive) | > 100 µM (inactive) | > 100 µM (inactive) |  | > 100 µM (inactive) | > 100 µM (inactive) | > 100 µM (inactive) | > 100 µM (inactive) | > 100 µM (inactive) |
| CN(C)CCCNC(CC#N)CCC#N (configuration not stated) | > 10 µM (inactive) | > 10 µM (inactive) | > 10 µM (inactive) | > 10 µM | > 10 µM (inactive) | > 10 µM (inactive) | > 10 µM (inactive) | > 10 µM (inactive) | > 10 µM (inactive) | > 10 µM (inactive) | > 10 µM (inactive) | > 10 µM (inactive) | > 10 µM (inactive) | > 10 µM (inactive) |  | > 10 µM (inactive) | > 10 µM (inactive) | > 10 µM (inactive) |  |
| Cc1cccc2c(N)c3cccc(C(=O)NCC[N+](C)(C)Cc4ccc(S(C)(=O)=O)cc4)c3nc12 | 36.5 µM (inactive) | > 91.2 µM (inactive) | > 95.1 µM (inactive) | > 100 µM | 44.2 µM (inactive) | 36.6 µM (inactive) | 2.9 µM (inactive) | 19.9 µM (inactive) | 50 µM (inactive) | 28 µM (inactive) | 70.5 µM (inactive) | > 100 µM (inactive) | 31.4 µM (inactive) | 10.8 µM (inactive) | 5.61 µM (inactive) | 47.1 µM (inactive) | > 100 µM (inactive) | 56.4 µM (inactive) |  |
| O=C(O)CC(NC(=O)/C(=C/c1ccccc1)NC(=O)c1ccccc1)C(=O)O (configuration not stated) | > 100 µM (inactive) | > 100 µM (inactive) | > 100 µM (inactive) | > 100 µM | > 100 µM (inactive) | > 100 µM (inactive) | > 100 µM (inactive) | > 100 µM (inactive) | > 100 µM (inactive) | > 100 µM (inactive) | > 100 µM (inactive) | > 100 µM (inactive) | > 100 µM (inactive) | > 100 µM (inactive) | > 100 µM (inactive) | > 100 µM (inactive) | > 100 µM (inactive) | > 100 µM (inactive) |  |
| C[C@]12CC[C@H]3[C@@H](CCC4=CC(=O)CC[C@@]43C)[C@@H]1CC[C@@H]2C(=O)Nc1ccc([N+](=O)[O-])c(C(F)(F)F)c1 | 17.5 µM (inactive) | 13.4 µM (inactive) | > 10 µM (inactive) | 12 µM | 19.6 µM (inactive) | 18.2 µM (inactive) | 23.4 µM (inactive) | 18.2 µM (inactive) | 20.7 µM (inactive) | 16.6 µM (inactive) | 14.3 µM (inactive) | 20.7 µM (inactive) | 18.7 µM (inactive) |  | 56.1 µM (inactive) | 18.2 µM (inactive) | > 10 µM (inactive) | 20.9 µM (inactive) | 23.7 µM (inactive) |
| COC(=O)c1c(O)ccc2c1c1c(n2Cc2ccccn2)C(=O)c2ccccc2C1 | 50 µM (inactive) |  | 49.8 µM (inactive) | > 100 µM | 16.5 µM (inactive) | 32.8 µM (inactive) | > 100 µM (inactive) | > 100 µM (inactive) | > 100 µM (inactive) | > 100 µM (inactive) | > 100 µM (inactive) | > 100 µM (inactive) |  | > 100 µM (inactive) | 13 µM (inactive) | 13.5 µM (inactive) | > 100 µM (inactive) | > 100 µM (inactive) | > 100 µM (inactive) |
| O=C(Nc1cccc2ccccc12)c1cc2ccccc2oc1=O | 36.8 µM (inactive) |  | 41.1 µM (inactive) | > 100 µM | > 100 µM (inactive) | 28.1 µM (inactive) | > 100 µM (inactive) | 32.8 µM (inactive) | > 100 µM (inactive) | 13.7 µM (inactive) | > 100 µM (inactive) | > 100 µM (inactive) | 24.3 µM (inactive) | 30.6 µM (inactive) | > 100 µM (inactive) | > 100 µM (inactive) | > 100 µM (inactive) | > 100 µM (inactive) | > 100 µM (inactive) |
